Experimental data taken from patent US20230346827A1 (priority 2020, published 2023).

Test system: rats subjected to sTBI
Test: sTBI rats, LMW-DS 1, 5, 15 mg/kg s.c. 30 min post-TBI: HPLC of brain energy metabolites, antioxidants, oxidative/nitrosative stress biomarkers (Example 4)
Type: in vivo, rat
Experimental: Male Wistar rats (n=160) of 300-350 g body weight were used in this study. They were fed with standard laboratory diet and water ad libitum in a controlled environment.
As the accepted anesthetic mixture, animals received 35 mg/kg b.w. ketamine and 0.25 mg/kg body weight midazolam by intramuscular injection. Diffuse sTBI was induced according to the “weight drop” impact acceleration model set up by Marmarou et al. J. Neurosurg. 1994, 80: 291-300. This model causes diffuse axonal injury and it is able to reproduce the physical and mechanical characteristics of the diffuse TBI in humans.
Severe TBI was induced by dropping a 450 g weight from 2 meters height onto the rat head protected by a helmet (metal disk previously fixed on the skull using dental cement) in order to uniformly distribute the mechanical force to the brain. Rats were placed prone on a bed of specific polyurethane foam inserted in a special container; this foam dissipates the major part of the potential energy (deriving from the mechanical forces) and prevents any rebound of the animal after the impact that could produce spinal damages.
After 2 or 7 days from TBI induction, rats were anesthetized again and then immediately sacrificed. These time points are coincident with the worst biochemical derangement (2 days) or, in the case of a mildly injured brain, with a full metabolic recovery (7 days).
The drug treatment consisted in a subcutaneous injection of 0.5 ml of LMW-DS (ILB®, Tikomed, Viken, Sweden, WO 2016/076780) and administered at 3 different concentrations (1, 5 and 15 mg/kg body weight), according to the schematic protocol described below. Sham-operated animals underwent the same procedure of anesthesia but TBI and were used as the control group.
(§1) Rats subjected to sTBI and receiving a single administration of LMW-DS after 30 minutes post-TBI, with sacrifice at 2 days post-TBI. Animals were divided in the following subgroups: • 1. 12 animals subjected to sTBI and treated with 1 mg/kg b.w. LMW-DS • 2. 12 animals subjected to sTBI and treated with 5 mg/kg b.w. LMW-DS • 3. 12 animals subjected to sTBI and treated with 15 mg/kg b.w. LMW-DS
as §1, with “at 7” for “at 2”
Rats (n = 12) subjected to sTBI and receiving repeated administrations of the maximal dose of LMW-DS (15 mg/kg b.w.) after 30 minutes, 3 days and 5 days post-TBI, with sacrifice at 7 days post-TBI. Four additional rats were used for the histo-morphological studies. Total rats in this group: n=16
To minimize metabolite loss, an in vivo craniectomy was performed in all animals during anesthesia. The rat skull was carefully removed, the brain was exposed, sharply cut along the sagittal fissure and the two hemispheres were separated. The hemispheres dedicated to biochemical analyses were freeze-clamped by aluminum tongues pre-cooled in liquid nitrogen and then immersed in liquid nitrogen. The freeze-clamping procedure was introduced to accelerate freezing of the tissue, thus minimizing potential metabolite loss.
Tissue homogenization for metabolite analyses was effected as described below. After the wet weight (w.w.) determination, the frozen hemispheres were placed into 7 ml of ice-cold, nitrogen-saturated, precipitating solution (1:10 w/v) composed by CH3CN + 10 mM KH2PO4, pH 7.40, (3:1; v:v), and the homogenization was performed using an Ultra-Turrax homogenizer set at 24,000 rpm/min (Janke & Kunkel, Staufen, Germany). […]

[1] = 15 mg/kg, 7 d post-sTBI, adimensional ratio

sodium salt of dextran sulfate [LMW-DS]
GDP (15 mg/kg, 2 d post-sTBI): 194.61 ± 26.88 nmol/g w.w. | GDP Glucose (15 mg/kg, 2 d post-sTBI): 84.24 ± 37.54 nmol/g w.w. | GMP (15 mg/kg, 2 d post-sTBI): 178.88 ± 22.46 nmol/g w.w. | GSH (15 mg/kg, 2 d post-sTBI): 2418.94 ± 352.75 nmol/g w.w. | GTP (15 mg/kg, 2 d post-sTBI): 179.07 ± 18.89 nmol/g w.w. | GUANINE (15 mg/kg, 2 d post-sTBI): 1.61 ± 0.40 nmol/g w.w. | GUANOSINE (15 mg/kg, 2 d post-sTBI): 24.35 ± 4.05 nmol/g w.w. | HYPOXANTHINE (15 mg/kg, 2 d post-sTBI): 6.82 ± 1.12 nmol/g w.w. | IMP (15 mg/kg, 2 d post-sTBI): 68.95 ± 12.98 nmol/g w.w. | INOSINE (15 mg/kg, 2 d post-sTBI): 142.91 ± 18.63 nmol/g w.w. | MDA (15 mg/kg, 2 d post-sTBI): 18.28 ± 2.98 nmol/g w.w. | Malonyl-CoA (15 mg/kg, 2 d post-sTBI): 28.73 ± 6.09 nmol/g w.w. | NADH (15 mg/kg, 2 d post-sTBI): 10.83 ± 1.58 nmol/g w.w. | NADPH (15 mg/kg, 2 d post-sTBI): 8.93 ± 0.74 nmol/g w.w. | NADP^+ (15 mg/kg, 2 d post-sTBI): 17.75 ± 4.06 nmol/g w.w. | NAD^+ (15 mg/kg, 2 d post-sTBI): 475.32 ± 80.91 nmol/g w.w. | NO2 (15 mg/kg, 2 d post-sTBI): 72.29 ± 8.71 nmol/g w.w. | NO3 (15 mg/kg, 2 d post-sTBI): 56.50 ± 12.30 nmol/g w.w. | UDP (15 mg/kg, 2 d post-sTBI): 80.00 ± 8.20 nmol/g w.w. | UDP-Gal (15 mg/kg, 2 d post-sTBI): 116.34 ± 9.71 nmol/g w.w. | UDP-GalNac (15 mg/kg, 2 d post-sTBI): 22.37 ± 3.30 nmol/g w.w. | UDP-Glc (15 mg/kg, 2 d post-sTBI): 43.41 ± 6.43 nmol/g w.w. | UDP-GlcNac (15 mg/kg, 2 d post-sTBI): 108.74 ± 9.90 nmol/g w.w. | UMP (15 mg/kg, 2 d post-sTBI): 147.53 ± 20.38 nmol/g w.w. | URACIL (15 mg/kg, 2 d post-sTBI): 15.55 ± 3.04 nmol/g w.w. | URIC ACID (15 mg/kg, 2 d post-sTBI): 26.00 ± 5.33 nmol/g w.w. | URIDINE (15 mg/kg, 2 d post-sTBI): 87.55 ± 15.41 nmol/g w.w. | UTP (15 mg/kg, 2 d post-sTBI): 108.21 ± 16.99 nmol/g w.w. | XANTHINE (15 mg/kg, 2 d post-sTBI): 13.87 ± 1.44 nmol/g w.w. | β-PSEUDOURIDINE (15 mg/kg, 2 d post-sTBI): 7.84 ± 1.57 nmol/g w.w. | NAD^+/NADH (15 mg/kg, 2 d post-sTBI, adimensional ratio): 44.40 ± 7.67 | ADENOSINE (15 mg/kg, 7 d post-sTBI): 55.95 ± 41.44 nmol/g w.w. | ADP (15 mg/kg, 7 d post-sTBI): 276.83 ± 36.87 nmol/g w.w. | ADP-Ribose (15 mg/kg, 7 d post-sTBI): 19.21 ± 4.82 nmol/g w.w. | AMP (15 mg/kg, 7 d post-sTBI): 50.50 ± 3.97 nmol/g w.w. | ASCORBIC ACID (15 mg/kg, 7 d post-sTBI): 2853.35 ± 343.64 nmol/g w.w. | ATP (15 mg/kg, 7 d post-sTBI): 1846.63 ± 148.55 nmol/g w.w. | Acetyl-CoA (15 mg/kg, 7 d post-sTBI): 38.60 ± 6.57 nmol/g w.w. | CDP choline (15 mg/kg, 7 d post-sTBI): 10.06 ± 3.23 nmol/g w.w. | CMP (15 mg/kg, 7 d post-sTBI): 47.10 ± 20.04 nmol/g w.w. | CREATININE (15 mg/kg, 7 d post-sTBI): 5.23 ± 0.92 nmol/g w.w. | CTP (15 mg/kg, 7 d post-sTBI): 96.44 ± 25.54 nmol/g w.w. | CYTIDINE (15 mg/kg, 7 d post-sTBI): 33.06 ± 11.63 nmol/g w.w. | CYTOSINE (15 mg/kg, 7 d post-sTBI): 13.87 ± 2.98 nmol/g w.w. | CoA-SH (15 mg/kg, 7 d post-sTBI): 64.93 ± 8.33 nmol/g w.w. | GDP (15 mg/kg, 7 d post-sTBI): 122.07 ± 13.95 nmol/g w.w. | GDP Glucose (15 mg/kg, 7 d post-sTBI): 101.65 ± 11.89 nmol/g w.w. | GMP (15 mg/kg, 7 d post-sTBI): 41.55 ± 19.66 nmol/g w.w. | GSH (15 mg/kg, 7 d post-sTBI): 2390.89 ± 315.16 nmol/g w.w. | GTP (15 mg/kg, 7 d post-sTBI): 479.98 ± 43.64 nmol/g w.w. | GUANINE (15 mg/kg, 7 d post-sTBI): 5.27 ± 2.24 nmol/g w.w. | GUANOSINE (15 mg/kg, 7 d post-sTBI): 20.91 ± 4.36 nmol/g w.w. | HYPOXANTHINE (15 mg/kg, 7 d post-sTBI): 10.21 ± 2.97 nmol/g w.w. | IMP (15 mg/kg, 7 d post-sTBI): 74.70 ± 19.13 nmol/g w.w. | INOSINE (15 mg/kg, 7 d post-sTBI): 104.41 ± 11.72 nmol/g w.w. | MDA (15 mg/kg, 7 d post-sTBI): 6.23 ± 1.03 nmol/g w.w. | Malonyl-CoA (15 mg/kg, 7 d post-sTBI): 7.98 ± 1.44 nmol/g w.w. | NADH (15 mg/kg, 7 d post-sTBI): 11.65 ± 1.63 nmol/g w.w. | NADPH (15 mg/kg, 7 d post-sTBI): 6.66 ± 1.55 nmol/g w.w. | NADP^+ (15 mg/kg, 7 d post-sTBI): 23.75 ± 8.72 nmol/g w.w. | NAD^+ (15 mg/kg, 7 d post-sTBI): 491.52 ± 69.61 nmol/g w.w. | NO2 (15 mg/kg, 7 d post-sTBI): 110.72 ± 23.99 nmol/g w.w. | NO3 (15 mg/kg, 7 d post-sTBI): 161.99 ± 27.67 nmol/g w.w. | UDP (15 mg/kg, 7 d post-sTBI): 37.91 ± 5.33 nmol/g w.w. | UDP-Gal (15 mg/kg, 7 d post-sTBI): 137.57 ± 9.46 nmol/g w.w. | UDP-GalNac (15 mg/kg, 7 d post-sTBI): 17.91 ± 5.13 nmol/g w.w. | UDP-Glc (15 mg/kg, 7 d post-sTBI): 62.97 ± 12.80 nmol/g w.w. | UDP-GlcNac (15 mg/kg, 7 d post-sTBI): 67.47 ± 23.34 nmol/g w.w. | UMP (15 mg/kg, 7 d post-sTBI): 181.82 ± 35.22 nmol/g w.w. | URACIL (15 mg/kg, 7 d post-sTBI): 15.92 ± 3.27 nmol/g w.w. | URIC ACID (15 mg/kg, 7 d post-sTBI): 8.60 ± 2.05 nmol/g w.w. | URIDINE (15 mg/kg, 7 d post-sTBI): 134.04 ± 31.76 nmol/g w.w. | UTP (15 mg/kg, 7 d post-sTBI): 127.42 ± 22.32 nmol/g w.w. | XANTHINE (15 mg/kg, 7 d post-sTBI): 12.71 ± 3.60 nmol/g w.w. | β-PSEUDOURIDINE (15 mg/kg, 7 d post-sTBI): 63.77 ± 11.83 nmol/g w.w. | ATP/ADP [1]: 6.76 ± 0.86 | NAD+/NADH [1]: 42.51 ± 5.26 | whole brain NAA (5 or 15 mg/kg b.w., 2 days post impact): significantly higher than values found in sTBI rats | ATP levels, % lower than the value of controls (7 days post impact): 16% | NAA concentration, % lower than the value of controls (7 days post impact): 16% | whole brain NAA (increasing single doses or repeat maximal dose, 7 days post sTBI): dose dependent increase
